Results taken from patent US20140135310A1, “SULPHONAMIDE DERIVATIVES OF ALICYCLIC AMINES FOR THE TREATMENT OF CENTRAL NERVOUS SYSTEM DISEASES” (Adamed Sp. z o.o., priority 2011, published 2014).

Assays:
[1] = target: dopaminergic receptors D3 (Homo sapiens, UniProt P35462); assay: Radioligand binding assay, dopaminergic D3 receptors; conditions: test compound 1×10^−6 M
Outline: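 Scintillation read-out. Specific = total − nonspecific (excess cold ligand). Data as % of control specific binding / % inhibition; IC50 by Hill fit; Ki = IC50/(1+L/KD), KD from Scatchard plot.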

[2] = tested on: α1 adrenergic receptors (rat cerebral cortex); assay: Radioligand binding assay, adrenergic α1 receptors; conditions: test compound 1×10^−6 M
Outline: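 Values derive from radioligand displacement, with non-specific binding defined by excess cold ligand and detection by scintillation. Hill-fit IC50s were converted to Ki via Cheng-Prusoff using Scatchard-derived Kd; percent inhibition of control specific binding also reported.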

[3] = target: dopaminergic receptors D2 (Homo sapiens, UniProt P14416); assay: Radioligand binding assay, dopaminergic D2 receptors; conditions: binding assay, test compound 1×10^−6 M
Outline: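 Values derive from competition curves: percent inhibition of control specific binding was fitted by Hill non-linear regression for IC50, and Ki calculated with Cheng–Prusoff from radioligand concentration and KD (Scatchard). Bound ligand was detected by scintillation counting.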

5-HT7 receptor = target: T1, 5-HT7 receptor (Homo sapiens, UniProt P34969); assay: Radioligand binding assay, serotoninergic 5-HT7 receptors; conditions: binding assay result in %, Table 5a;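 further: test compound at 1 µM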
T1 construct: purchased PerkinElmer
Outline: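 Ki values used the Cheng–Prusoff equation, with KD from Scatchard analysis, applied to IC50 from Hill fits of human 5-HT7 radioligand competition curves. Bound radioligand was counted by scintillation, and excess unlabelled ligand set the non-specific binding.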

5-HT2A receptor = target: T2, 5-HT2A receptor (Homo sapiens, UniProt P28223); assay: Radioligand binding assay, serotoninergic 5-HT2A receptors; conditions: binding assay result in %, Table 5a
T2 construct: purchased PerkinElmer
Outline: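 Competition curves from scintillation-counted specific binding (total minus binding with excess unlabelled ligand) were Hill-fitted to give IC50, converted to Ki via Cheng-Prusoff using Scatchard-derived Kd.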

[4] = target: T3, 5-HT1A receptor (rat hippocampus) (Rattus norvegicus, UniProt P19327); assay: Radioligand binding assay, serotoninergic 5-HT1A receptors; conditions: binding assay result in %, Table 5a;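 further: test compound at 1 µM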
T3 construct: hippocampus; from tissue; host or cells: rat hippocampus
T3 sequence (P19327 1-422): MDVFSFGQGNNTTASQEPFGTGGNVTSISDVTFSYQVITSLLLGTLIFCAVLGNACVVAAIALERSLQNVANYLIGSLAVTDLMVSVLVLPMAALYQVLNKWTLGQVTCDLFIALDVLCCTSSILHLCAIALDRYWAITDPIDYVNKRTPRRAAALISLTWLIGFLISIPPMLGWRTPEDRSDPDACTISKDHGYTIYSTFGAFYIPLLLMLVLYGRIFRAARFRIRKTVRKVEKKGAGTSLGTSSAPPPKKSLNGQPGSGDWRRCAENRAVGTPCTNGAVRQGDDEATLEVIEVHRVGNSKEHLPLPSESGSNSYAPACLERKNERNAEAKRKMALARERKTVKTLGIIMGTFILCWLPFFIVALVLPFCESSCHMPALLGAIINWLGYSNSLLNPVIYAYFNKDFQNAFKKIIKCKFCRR

5-HT6 receptor = target: T4, 5-HT6 receptor (Homo sapiens, UniProt P50406); assay: Radioligand binding assay, serotoninergic 5-HT6 receptors; conditions: binding assay result in %, Table 5a;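 further: test compound at 1 µM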
T4 construct: purchased PerkinElmer
Outline: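 Values are Ki from Cheng–Prusoff, taking IC50 from Hill nonlinear regression of competition curves and KD from a Scatchard plot. Specific binding was total minus binding with excess unlabelled ligand. Radioligand displacement was detected by scintillation counting, and data were also reported as percent of control specific binding.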

[5] = target: T5, serotonin transporter (SERT) (Homo sapiens, UniProt P31645); assay: Radioligand binding assay, serotonin transporter (SERT); conditions: binding assay, test compound 1×10^−6 M
T5 construct: expressed in transfected cells; host or cells: CHO cells
Outline: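 Values are derived from competition curves fitted by the Hill equation to give IC50, then converted to Ki by Cheng-Prusoff with radioligand Kd from Scatchard analysis. Specific binding equals total minus non-specific (excess cold ligand), counted by scintillation, and is also expressed as percent inhibition of control.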

T2 sequence (P28223 whole entry): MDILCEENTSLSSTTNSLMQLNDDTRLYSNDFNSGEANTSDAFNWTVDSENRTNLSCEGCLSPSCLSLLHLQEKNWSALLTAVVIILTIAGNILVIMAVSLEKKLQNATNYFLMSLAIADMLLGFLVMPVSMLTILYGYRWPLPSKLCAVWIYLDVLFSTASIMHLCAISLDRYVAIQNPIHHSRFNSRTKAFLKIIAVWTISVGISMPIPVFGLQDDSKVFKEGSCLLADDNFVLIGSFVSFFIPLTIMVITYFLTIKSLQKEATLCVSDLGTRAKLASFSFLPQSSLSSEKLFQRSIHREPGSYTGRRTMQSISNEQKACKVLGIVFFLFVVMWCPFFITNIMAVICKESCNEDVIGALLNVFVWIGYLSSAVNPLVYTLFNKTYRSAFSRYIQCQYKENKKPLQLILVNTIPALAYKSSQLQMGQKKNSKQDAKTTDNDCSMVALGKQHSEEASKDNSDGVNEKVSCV
T4 sequence (P50406 whole entry): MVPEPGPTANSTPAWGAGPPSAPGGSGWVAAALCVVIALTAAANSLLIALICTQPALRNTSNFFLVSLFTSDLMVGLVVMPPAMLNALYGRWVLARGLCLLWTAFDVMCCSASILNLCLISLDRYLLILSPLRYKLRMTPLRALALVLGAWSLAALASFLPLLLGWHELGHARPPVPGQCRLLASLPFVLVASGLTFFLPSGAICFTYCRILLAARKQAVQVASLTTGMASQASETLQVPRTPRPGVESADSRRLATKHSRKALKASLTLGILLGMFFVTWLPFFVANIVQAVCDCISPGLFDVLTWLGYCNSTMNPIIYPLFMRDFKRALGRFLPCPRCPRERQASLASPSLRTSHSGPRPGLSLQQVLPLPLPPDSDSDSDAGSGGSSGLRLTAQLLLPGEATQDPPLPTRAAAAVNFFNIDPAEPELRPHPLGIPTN
Sequence of dopaminergic receptors D2 (P14416 whole entry): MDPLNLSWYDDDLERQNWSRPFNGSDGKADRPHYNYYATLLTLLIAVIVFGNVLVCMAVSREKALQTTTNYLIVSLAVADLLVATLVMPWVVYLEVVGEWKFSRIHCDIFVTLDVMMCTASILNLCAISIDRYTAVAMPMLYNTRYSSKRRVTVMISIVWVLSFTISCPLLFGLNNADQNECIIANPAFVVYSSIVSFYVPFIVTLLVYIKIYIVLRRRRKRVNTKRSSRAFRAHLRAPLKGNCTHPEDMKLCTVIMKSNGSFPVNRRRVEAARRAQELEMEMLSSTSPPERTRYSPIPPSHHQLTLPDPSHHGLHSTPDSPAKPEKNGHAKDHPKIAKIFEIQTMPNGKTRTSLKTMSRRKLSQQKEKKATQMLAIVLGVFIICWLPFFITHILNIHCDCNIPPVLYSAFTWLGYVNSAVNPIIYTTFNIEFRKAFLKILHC
T5 sequence (P31645 whole entry): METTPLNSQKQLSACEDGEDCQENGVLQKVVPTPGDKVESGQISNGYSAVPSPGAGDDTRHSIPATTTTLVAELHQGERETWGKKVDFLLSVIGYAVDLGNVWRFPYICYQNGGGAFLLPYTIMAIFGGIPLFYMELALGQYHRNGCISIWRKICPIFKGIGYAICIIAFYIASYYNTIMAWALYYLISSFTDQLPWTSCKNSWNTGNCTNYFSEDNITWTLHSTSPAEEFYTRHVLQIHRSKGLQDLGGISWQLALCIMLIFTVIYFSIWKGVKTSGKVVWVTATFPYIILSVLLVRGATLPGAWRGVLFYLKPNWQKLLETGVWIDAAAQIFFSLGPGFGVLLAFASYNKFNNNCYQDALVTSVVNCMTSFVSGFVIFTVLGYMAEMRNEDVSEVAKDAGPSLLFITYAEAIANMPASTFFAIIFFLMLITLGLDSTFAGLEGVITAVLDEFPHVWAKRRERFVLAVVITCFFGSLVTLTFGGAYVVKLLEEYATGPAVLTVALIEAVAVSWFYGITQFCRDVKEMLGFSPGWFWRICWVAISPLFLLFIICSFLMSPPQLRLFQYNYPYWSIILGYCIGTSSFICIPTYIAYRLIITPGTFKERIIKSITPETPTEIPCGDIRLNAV
Sequence of dopaminergic receptors D3 (P35462 whole entry): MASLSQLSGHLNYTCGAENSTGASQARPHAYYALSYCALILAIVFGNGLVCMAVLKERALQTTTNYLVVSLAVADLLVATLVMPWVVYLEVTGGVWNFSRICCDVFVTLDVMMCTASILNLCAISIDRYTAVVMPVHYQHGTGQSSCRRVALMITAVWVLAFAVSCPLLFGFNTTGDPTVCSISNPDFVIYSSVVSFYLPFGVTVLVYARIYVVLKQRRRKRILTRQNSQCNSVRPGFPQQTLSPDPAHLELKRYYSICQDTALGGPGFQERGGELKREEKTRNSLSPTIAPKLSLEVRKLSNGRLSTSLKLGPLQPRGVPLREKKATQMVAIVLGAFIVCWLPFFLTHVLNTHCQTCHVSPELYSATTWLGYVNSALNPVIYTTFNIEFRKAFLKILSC
T1 sequence (P34969 whole entry): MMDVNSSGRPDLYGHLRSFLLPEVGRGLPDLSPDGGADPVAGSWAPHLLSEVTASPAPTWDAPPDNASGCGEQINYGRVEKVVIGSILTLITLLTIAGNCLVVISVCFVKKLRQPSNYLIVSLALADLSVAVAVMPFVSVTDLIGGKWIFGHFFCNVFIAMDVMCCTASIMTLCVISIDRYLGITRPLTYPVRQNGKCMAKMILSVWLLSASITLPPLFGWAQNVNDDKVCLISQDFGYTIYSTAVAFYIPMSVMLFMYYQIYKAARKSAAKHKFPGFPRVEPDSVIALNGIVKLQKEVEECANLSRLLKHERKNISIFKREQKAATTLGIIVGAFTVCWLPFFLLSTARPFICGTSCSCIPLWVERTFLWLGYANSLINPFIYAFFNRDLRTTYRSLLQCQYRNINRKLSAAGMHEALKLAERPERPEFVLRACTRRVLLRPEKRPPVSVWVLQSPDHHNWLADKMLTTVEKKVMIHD

Compound | D3 [%] [1] | α1 [%] [2] | D2 [%] [3] | 5-HT7 [%] (5-HT7 receptor) | 5-HT2A [%] (5-HT2A receptor) | 5-HT1A [%] [4] | 5-HT6 [%] (5-HT6 receptor) | SERT [%] [5] | inhibition at 1 µM [1] | inhibition at 1 µM [3] | inhibition at 1 µM (5-HT7 receptor) | inhibition at 1 µM (5-HT2A receptor) | inhibition at 1 µM [4] | inhibition at 1 µM (5-HT6 receptor) | inhibition at 1 µM [5]
O=S(=O)(NC1CCN(CCOc2cccc3[nH]ccc23)CC1)c1cccc2ccccc12 [Compound 60, N-[1-[2-(1H-Indol-4-yloxy)ethyl]-4-piperidine]naphthalene-1-sulphonamide] | 102% | 87% | 41% | 96% | 76% | 85% | 69% | 21% | – | – | – | – | – | – | –
Cc1cccc(S(=O)(=O)NCC2CCN(CCCc3noc4cc(F)ccc34)CC2)c1 [Compound 36, N-[[1-[3-(6-Fluoro-1,2-benzoxazol-3-yl)propyl]-4-piperidine]methyl]-3-methylbenzenesulphonamide] | 38% | 103% | 57% | 88% | 59% | 18% | 75% | 0% | – | – | – | – | – | – | –
3,4-Dichloro-N-[1-[3-(6-fluoro-1,2-benzoxazol-3-yl)propyl]pyrrolidin-3-yl]benzenesulphonamide [Compound 211] | 63% | 90% | 93% | 107% | 100% | 32% | 92% | 4% | – | – | – | – | – | – | –
O=S(=O)(NC1CN(CCOc2cccc3c2OCCO3)C1)c1ccccc1 [Compound 88, N-[1-[2-(2,3-Dihydro-1,4-benzodioxan-8-yloxy)ethyl]azetidin-3-yl]-benzenesulphonamide] | −2% | −23% | −5% | 84% | 34% | 96% | 13% | −13% | – | – | – | – | – | – | –
O=S(=O)(NCC1CN(CCOc2cccc3c2OCCO3)C1)c1cccc2ccccc12 [Compound 176, N-[[1-[2-(2,3-Dihydro-1,4-benzodioxin-5-yloxy)ethyl]azetidin-3-yl]methyl]-naphthalene-1-sulphonamide] | – | 51% | – | – | – | – | – | – | 8% | 21% | 87% | 35% | 98% | 14% | -2%
O=S(=O)(NCC1CN(CCOc2cccc3ccccc23)C1)c1ccc(F)c(Cl)c1 [Compound 172, 3-Chloro-4-fluoro-N-[[1-[2-(1-naphthyloxy)ethyl]azetidin-3-yl]methyl]-benzenesulphonamide] | – | 40% | – | – | – | – | – | – | 100% | 76% | 92% | 71% | 85% | 96% | 46%
O=S(=O)(NC1CN(CCOc2cccc3[nH]ccc23)C1)c1ccccc1 [Compound 45, N-[1-[2-(1H-indol-4-yloxy)ethyl]azetidin-3-yl]benzenesulphonamide] | – | 72% | – | – | – | – | – | – | 87% | 53% | 93% | 75% | 88% | 0% | -4%
O=S(=O)(NCC1CN(CCOc2cccc3c2OCCO3)C1)c1cccs1 [Compound 184, N-[[1-[2-(2,3-Dihydro-1,4-benzodioxin-5-yloxy)ethyl]azetidin-3-yl]methyl]-thiophene-2-sulphonamide] | – | 88% | – | – | – | – | – | – | 39% | 24% | 89% | 76% | 71% | 20% | 1%
O=S(=O)(NCC1CN(CCOc2cccc3c2OCCO3)C1)c1ccc(Cl)s1 [Compound 192, 5-Chloro-N-[[1-[2-(2,3-dihydro-1,4-benzodioxin-5-yloxy)ethyl]azetidin-3-yl]methyl]thiophene-2-sulphonamide] | – | 88% | – | – | – | – | – | – | 70% | 42% | 97% | 86% | 79% | 30% | 38%
Cn1ccc2c(S(=O)(=O)NCC3CCN(CCOc4cccc5ccccc45)C3)cccc21 (centres unmarked) [Compound 275, 1-Methyl-N-[[1-[2-(1-naphthyloxy)ethyl]pyrrolidin-3-yl]methyl]indole-4-sulphonamide] | – | 53% | – | – | – | – | – | – | 94% | 66% | 111% | 91% | 86% | 84% | 93%
O=S(=O)(NC1CCN(CCCc2noc3cc(F)ccc23)CC1)c1ccc(-c2ccccc2)cc1 [Compound 327, N-[1-[3-(6-Fluoro-1,2-benzoxazol-3-yl)propyl]-4-piperidyl]-4-phenylbenzenesulphonamide] | – | 81% | – | – | – | – | – | – | 56% | 79% | 86% | 94% | 20% | 68% | 33%
O=S(=O)(NCC1CN(CCCc2c[nH]c3ccc(F)cc23)C1)c1ccc2ccccc2c1 [Compound 160, N-[[1-[3-(5-Fluoro-1H-indol-3-yl)propyl]azetidin-3-yl]methyl]naphthalene-2-sulphonamide] | – | 49% | – | – | – | – | – | – | 87% | 86% | 75% | 97% | 76% | 83% | 100%
Cc1cccc(S(=O)(=O)NC2CCN(CCOc3cccc4[nH]ccc34)C2)c1 (centres unmarked) [Compound 52, N-[1-[2-(1H-Indol-4-yloxy)ethyl]pyrrolidin-3-yl]-3-methylbenzene-sulphonamide] | – | 81% | – | – | – | – | – | – | 106% | 77% | 90% | 89% | 90% | 41% | 38%
O=S(=O)(NCC1CCN(CCOc2cccc3ccccc23)C1)c1cccc2ccccc12 (centres unmarked) [Compound 273, N-[[1-[2-(1-Naphthyloxy)ethyl]pyrrolidin-3-yl]methyl]naphthalene-1-sulphonamide] | – | 25% | – | – | – | – | – | – | 90% | 58% | 77% | 95% | 85% | 90% | 64%
O=S(=O)(NCC1CCN(CCOc2cccc3c2OCCO3)C1)c1ccc(Cl)cc1 (centres unmarked) [Compound 289, 4-Chloro-N-[[1-[2-(2,3-dihydro-1,4-benzodioxin-5-yloxy)ethyl]pyrrolidin-3-yl]methyl]benzenesulphonamide] | – | 46% | – | – | – | – | – | – | 41% | -19% | 81% | 61% | 99% | -1% | 53%
O=S(=O)(NC1CCN(CCCc2noc3cc(F)ccc23)C1)c1cnc2ccccn12 (centres unmarked) [Compound 30, N-[1-[3-(6-Fluoro-1,2-benzoxazol-3-yl)propyl]pyrrolidin-3-yl]imidazo-[1,2-a]pyridine-3-sulphonamide] | – | 84% | – | – | – | – | – | – | -2% | 62% | 82% | 95% | 5% | 77% | 36%
